Measured values from patent US20090018150A1, “5-Ht2b Receptor Antagonists” (ASTERAND UK LIMITED, priority 2003, published 2009).
Counter-ions that a name gives are not always drawn.

Columns and labels:
[1] = target: T1, human cloned 5-HT2B receptors (Homo sapiens, UniProt P41595); assay: Human cloned 5-HT2B receptor binding assay; settings: [3H]LSD (1 nM) displacement, membranes of CHO-K1 cells expressing cloned 5-HT2B receptor; read-out: 5-HT2B pKi (converted)
T1 construct: expressed in transfected cells; host or cells: CHO-K1
Summary of the method: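 Membranes from CHO-K1 cells expressing cloned receptor incubated 30 min at 37 °C with 1 nM [3H]LSD, 10 μM pargyline and compound (1×10^−10 to 1×10^−4 M) in 50 mM Tris-HCl pH 7.4, 4 mM CaCl2. Nonspecific binding with 100 μM 5-HT; filtration and scintillation counting, IC50 converted to Ki using Kd from saturation binding.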

[2] = target: T1, human cloned 5-HT2B receptors; assay: Human cloned 5-HT2B cell-based functional assay; settings: inhibition of 5-HT response, Fluo-4 AM, CHO.K1 cells expressing cloned 5-HT2B receptor
Experimental: The following describes an in vitro functional assay using human cloned 5-HT2B receptors to determine the ability of compounds to block the receptor. CHO.K1 cells expressing cloned 5-HT2B receptor were maintained In Ultra-CHO medium containing 400 μg/ml of G418, 1000 U/ml penicillin, 100 μg/ml streptomycin, 2.5 μg/ml fungizone, in 95/5% O2/CO2 at 37° C. Ultra-CHO medium additionally supplemented with 1% foetal bovine serum was used when seeding the cells and removed after 5 hours. Cells were plated in Costar 96 well white, clear-bottomed plate at a density of 50,000 cells per well and incubated for at least 24 hours in 95/5% O2/CO2 at 37° C. before running the assay. Media was removed from the wells and 200 μl of 4 μM Fluo-4 AM added, this was incubated in a Wallace Victor 2V workstation at 37° C. for 30 minutes. The Fluo-4 AM was then removed from the wells, which were then washed twice with 200 μl of buffer (HBSS without calcium/magnesium/phenol red, 20 mM HEPES, 1 mM Ca^2+, 1 mM Mg^2+, 2.5 mM probenecid, pH to 7.4), 180 μl of buffer or test compound was added to the well and incubated for 30 minutes. The Victor 2V injectors were used to inject 20 μl of 5-HT after obtaining 10 0.1-second baseline readings at 535 nm, followed by 150 readings. All test compounds were aliquoted in 100% DMSO at 10 mM and diluted to 1 mM in 50% DMSO, subsequent dilutions were made using buffer. Buffer was also used to dilute the 5-HT. Data were analysed using Microsoft Excel and GraphPad Prism, with the latter used to produce sigmoidal dose-response curves for each compound. The compound concentration that inhibited the 5-HT response by 50% was taken (IC50-M), and the results are shown in Table 2, as pIC50, being the negative log (to the base 10) of the measured IC50 values.

[3] = target: T2, cloned human 5-HT2A receptor (Homo sapiens, UniProt P28223); assay: Human 5-HT2A receptor binding assay; settings: [3H]ketanserin (1 nM) displacement, CHO-K1 cell membranes; read-out: 5-HT2A pKi (converted)
T2 construct: purchased Euroscreen; host or cells: CHO-K1
Summary of the method: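 Competition binding with 15 μg membranes from CHO-K1 cells expressing cloned human receptor, 1 nM [3H]ketanserin, 10 μM pargyline, 50 mM Tris pH 7.4, compounds 1×10^−10 to 1×10^−4 M; 100 μM mianserin defined nonspecific binding. Incubated 15 min at 37 °C, filtered, counted; IC50 converted to Ki using saturation-derived Kd.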

[4] = target: T3, cloned human 5-HT2C receptor (Homo sapiens, UniProt P28335); assay: Human 5-HT2C receptor binding assay; settings: [3H]mesulergine (1 nM) displacement, CHO-K1 cell membranes; read-out: 5-HT2C pKi (converted)
T3 construct: purchased Euroscreen; host or cells: CHO-K1
T3 sequence (P28335 33-458): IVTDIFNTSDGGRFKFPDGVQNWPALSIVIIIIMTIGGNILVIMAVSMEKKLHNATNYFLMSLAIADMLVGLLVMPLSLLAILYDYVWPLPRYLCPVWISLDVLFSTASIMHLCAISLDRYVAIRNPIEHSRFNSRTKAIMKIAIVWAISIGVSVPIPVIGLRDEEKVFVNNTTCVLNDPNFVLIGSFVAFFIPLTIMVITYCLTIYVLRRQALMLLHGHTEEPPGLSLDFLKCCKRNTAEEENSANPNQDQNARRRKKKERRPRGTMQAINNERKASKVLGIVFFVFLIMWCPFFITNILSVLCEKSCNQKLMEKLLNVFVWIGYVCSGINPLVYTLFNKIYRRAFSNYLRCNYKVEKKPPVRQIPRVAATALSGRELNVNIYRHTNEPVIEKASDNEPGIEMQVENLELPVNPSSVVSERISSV
Summary of the method: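 CHO-K1 cell membranes expressing the receptor (6 μg) competed against [^3H]mesulergine (1 nM) in 50 mM Tris-HCl pH 7.7, 0.1% ascorbic acid, 10 μM pargyline for 30 min at 37° C; compounds 1×10^−10 to 1×10^−4M. Nonspecific binding with 100 μM mianserin; filtration and scintillation counting. IC50 converted to Ki using saturation-derived Kd.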

T2 sequence (P28223 whole entry): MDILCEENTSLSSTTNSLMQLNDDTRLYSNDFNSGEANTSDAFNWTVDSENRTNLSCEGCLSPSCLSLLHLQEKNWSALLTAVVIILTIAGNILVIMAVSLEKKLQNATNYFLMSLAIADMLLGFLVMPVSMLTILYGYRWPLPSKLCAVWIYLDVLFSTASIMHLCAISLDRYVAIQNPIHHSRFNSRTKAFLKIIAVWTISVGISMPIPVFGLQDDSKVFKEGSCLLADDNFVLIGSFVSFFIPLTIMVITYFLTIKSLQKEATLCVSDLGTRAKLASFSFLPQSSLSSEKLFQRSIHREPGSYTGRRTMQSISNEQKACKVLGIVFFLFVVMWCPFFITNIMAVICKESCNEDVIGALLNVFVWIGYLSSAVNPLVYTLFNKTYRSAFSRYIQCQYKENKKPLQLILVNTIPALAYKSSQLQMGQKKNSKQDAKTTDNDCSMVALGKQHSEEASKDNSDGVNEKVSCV
T1 sequence (P41595 whole entry): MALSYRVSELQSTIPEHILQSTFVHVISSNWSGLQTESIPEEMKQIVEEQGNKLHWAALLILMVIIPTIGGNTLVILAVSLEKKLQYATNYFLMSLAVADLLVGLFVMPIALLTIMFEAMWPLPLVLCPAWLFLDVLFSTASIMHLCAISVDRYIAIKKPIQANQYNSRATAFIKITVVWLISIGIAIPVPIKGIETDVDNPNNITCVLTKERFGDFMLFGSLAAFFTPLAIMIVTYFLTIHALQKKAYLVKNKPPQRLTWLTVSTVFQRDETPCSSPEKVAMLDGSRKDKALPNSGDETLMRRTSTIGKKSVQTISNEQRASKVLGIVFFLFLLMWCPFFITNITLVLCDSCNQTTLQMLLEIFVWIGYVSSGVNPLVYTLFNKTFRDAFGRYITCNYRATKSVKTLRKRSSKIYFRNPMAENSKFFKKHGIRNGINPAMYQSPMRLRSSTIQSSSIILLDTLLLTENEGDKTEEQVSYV

CC(=O)Nc1nc(-c2ccc(F)c3ccccc23)c[nH]1 [Compound 103F, N-[4-(4-Fluoro-naphthalen-1-yl)-1H-imidazol-2-yl]-acetamide]
Ki [1]: < 100 nM
IC50 [2]: < 100 nM
Ki [3]: > 3160 nM
Ki [4]: > 3160 nM

COc1ccccc1-c1cccc(-c2oc(N)nc2C)c1 [Compound 219B, 5-(2′-Methoxy-biphenyl-3-yl)-4-methyl-oxazol-2-ylamine, trifluoroacetic acid]
Ki [1]: < 100 nM
IC50 [2]: < 1000 nM
Ki [3]: > 1000 nM
Ki [4]: > 1000 nM

Cc1cc(Nc2cccc(C(F)(F)F)c2)nc(N)n1 [Compound 2H, 6-Methyl-N^4-(3-trifluoromethyl-phenyl)-pyrimidine-2,4-diamine, hydrochloride]
Ki [1]: < 1000 nM
Ki [3]: > 10000 nM
Ki [4]: > 1000 nM

CC(=O)Nc1nc(-c2c(O)ccc3ccccc23)c[nH]1 [Compound 103Q, N-[4-(2-hydroxy-naphthalen-1-yl)-1H-imidazol-2-yl]-acetamide]
Ki [1]: < 1000 nM
Ki [3]: > 3160 nM
Ki [4]: > 1000 nM

COc1ccc2ccccc2c1-c1c[nH]c(NC(C)=O)n1 [Compound 103C, N-[4-(2-Methoxy-naphthalen-1-yl)-1H-imidazol-2-yl]-acetamide]
Ki [1]: < 100 nM
IC50 [2]: < 100 nM
Ki [3]: > 316 nM
Ki [4]: > 316 nM

Nc1nc(-c2cccc3ccc(Br)cc23)c[nH]1 [Compound 104G, 4-(7-Bromo-naphthalen-1-yl)-1H-imidazol-2-ylamine]
Ki [1]: < 100 nM
Ki [3]: > 316 nM
Ki [4]: > 316 nM

Nc1nc(-c2cccc(-c3ccccc3)c2)c[nH]1 [Compound 108, 4-biphenyl-3-yl-1H-imidazol-2-ylamine]
Ki [1]: < 100 nM
Ki [3]: > 316 nM
Ki [4]: > 100 nM

CC(=O)Nc1ccc(Nc2cc(C)nc(N)n2)cc1 [Compound 2V, N-[4-(2-amino-6-methyl-pyrimidin-4-ylamino)-phenyl]-acetamide hydrochloride]
Ki [1]: < 1000 nM
Ki [3]: > 1000 nM
Ki [4]: > 1000 nM

Cc1cc(Nc2cccc(Br)c2)nc(N)n1 [Compound 2AF, N^4-(3-bromo-phenyl)-6-methyl-pyrimidine-2,4-diamine trifluoroacetic acid]
Ki [1]: < 1000 nM
Ki [3]: > 3160 nM
Ki [4]: > 1000 nM

Cc1cccc(-c2ccc(Nc3nc(N)nn3C)cc2)c1 [Compound 410C, 1-methyl-N^5-(3′-methyl-biphenyl-4-yl)-1H-[1,2,4]triazole-3,5-diamine trifluoroacetic acid]
Ki [1]: < 1000 nM
Ki [3]: > 1000 nM
Ki [4]: > 1000 nM

Cc1cccc(-c2cccc(Nc3nc(N)nn3C)c2)c1 [Compound 406C, 1-methyl-1-(3′-methyl-biphenyl-3-yl)-1H-[1,2,4]triazole-3,5-diamine]
Ki [1]: < 100 nM
IC50 [2]: < 100 nM
Ki [3]: > 1000 nM
Ki [4]: > 1000 nM

Cc1cc(Nc2cccc(I)c2)nc(N)n1 [Compound 2G, N^4-(3-iodo-phenyl)-6-methyl-pyrimidine-2,4-diamine hydrochloride]
Ki [1]: < 100 nM
Ki [3]: > 3160 nM
Ki [4]: > 316 nM

Cc1cc(Nc2ccc(I)c(Cl)c2)nc(N)n1 [Compound 2Y, N-(3-chloro-4-iodo-phenyl)-6-methyl-pyrimidine-2,4-diamine hydrochloride]
Ki [1]: < 100 nM
Ki [3]: > 1000 nM
Ki [4]: > 1000 nM

COc1ccccc1-c1cccc(-c2cnc(N)o2)c1 [Compound 209G, 5-(2′-Methoxy-biphenyl-3-yl)-oxazol-2-ylamine trifluoroacetic acid]
Ki [1]: < 100 nM
Ki [3]: > 1000 nM
Ki [4]: > 1000 nM

COc1ccc(-c2c[nH]c(N)n2)c2ccccc12 [Compound 104B, 4-(4-Methoxy-naphthalen-1-yl)-1H-imidazol-2-ylamine]
Ki [1]: < 100 nM
Ki [3]: > 3160 nM
Ki [4]: > 3160 nM

Cc1cc(Nc2cccc3c2CCC3)nc(N)n1 [Compound 2R, N^4-indan-4-yl-6-methyl-pyrimidine-2,4-diamine hydrochloride]
Ki [1]: < 1000 nM
Ki [3]: > 1000 nM
Ki [4]: > 1000 nM

Cc1cc(Nc2ccc3c(c2)CCC3)nc(N)n1 [Compound 2J, N^4-indan-5-yl-6-methyl-pyrimidine-2,4-diamine hydrochloride]
Ki [1]: < 100 nM
Ki [3]: > 10000 nM
Ki [4]: > 1000 nM

COc1ccc2ccccc2c1-c1c[nH]c(N)n1 [Compound 104C, 4-(2-Methoxy-naphthalen-1-yl)-1H-imidazol-2-ylamine]
Ki [1]: < 100 nM
IC50 [2]: < 1000 nM
Ki [3]: > 1000 nM
Ki [4]: > 316 nM

COc1ccc(-c2cccc(C)c2)cc1-c1cnc(N)o1 [Compound 224C, 5-(4-Methoxy-3′-methyl-biphenyl-3-yl)-oxazol-2-ylamine, trifluoroacetic acid]
Ki [1]: < 1000 nM
Ki [3]: > 1000 nM
Ki [4]: > 1000 nM

CC(C)c1[nH]c(N)nc1-c1cccc2ccccc12 [Compound 104K, 5-Isopropyl-4-naphthalen-1-yl-1H-imidazol-2-ylamine]
Ki [1]: < 100 nM
Ki [3]: > 100 nM
Ki [4]: > 316 nM

Cn1nc(N)nc1Nc1cccc(-c2ccccc2)c1 [Compound 406A, N^5-biphenyl-3-yl-1-methyl-1H-[1,2,4]triazole-3,5-diamine]
Ki [1]: < 316 nM
Ki [3]: > 1000 nM
Ki [4]: > 1000 nM

Cc1cc(Nc2ccc(F)c(F)c2)nc(N)n1 [Compound 2M, N^4-(3,4-difluoro-phenyl)-6-methyl-pyrimidine-2,4-diamine hydrochloride]
Ki [1]: < 1000 nM
Ki [3]: > 1000 nM
Ki [4]: > 1000 nM

Cc1cc(Nc2ccc(I)cc2)nc(N)n1 [Compound 2E, N^4-(4-iodo-phenyl)-6-methyl-pyrimidine-2,4-diamine hydrochloride]
Ki [1]: < 1000 nM
Ki [3]: > 10000 nM
Ki [4]: > 316 nM

CC(=O)Nc1nc(-c2cccc3ccc(Br)cc23)c[nH]1 [Compound 103G, N-[4-(7-Bromo-naphthalen-1-yl)-1H-imidazol-2-yl]-acetamide]
Ki [1]: < 100 nM
Ki [3]: > 1000 nM
Ki [4]: > 1000 nM

Nc1ncc(-c2cccc(-c3cccc(O)c3)c2)o1 [Compound 209C, 3′-(2-Amino-oxazol-5-yl)-biphenyl-3-ol]
Ki [1]: < 1000 nM
Ki [3]: > 10000 nM
Ki [4]: > 10000 nM

CCOc1ccc2ccccc2c1-c1c[nH]c(NC(C)=O)n1 [Compound 103A, N-[4-(2-Ethoxy-naphthalen-1-yl)-1H-imidazol-2-yl]-acetamide]
Ki [1]: < 100 nM
Ki [3]: > 3160 nM
Ki [4]: > 1000 nM

Cc1cc(Nc2cc(Br)ccc2Br)nc(N)n1 [Compound 2AJ, N^4-(2,5-dibromo-phenyl)-6-methyl-pyrimidine-2,4-diamine trifluoroacetic acid]
Ki [1]: < 100 nM
Ki [3]: > 1000 nM
Ki [4]: > 316 nM

CC(=O)Nc1nc(-c2cccc3ccccc23)c[nH]1 [Compound 103N, N-(4-Naphthalen-1-yl-1H-imidazol-2-yl)-acetamide]
Ki [1]: < 1000 nM
Ki [3]: > 10000 nM
Ki [4]: > 10000 nM
